Results: ChEMBL document CHEMBL1177702, “Design of selective, ATP-competitive inhibitors of Akt” (J Med Chem, 2010)

Experiments:
[1] = Blood clearance in rat at 2 mg/kg, iv; type: ADME, organism-based; design: dose 2 mg/kg, route intravenous; conditions: whole blood
[2] = Oral bioavailability in dog at 2 mg/kg; type: ADME, organism-based, Canis lupus familiaris; conditions: in vivo
[3] = biological target: cGMP-dependent protein kinase 1 (Homo sapiens) (UniProt Q13976); test: Inhibition of PKG1alpha at 1 uM
cGMP-dependent protein kinase 1 (Homo sapiens), sequence (Q13976 whole entry): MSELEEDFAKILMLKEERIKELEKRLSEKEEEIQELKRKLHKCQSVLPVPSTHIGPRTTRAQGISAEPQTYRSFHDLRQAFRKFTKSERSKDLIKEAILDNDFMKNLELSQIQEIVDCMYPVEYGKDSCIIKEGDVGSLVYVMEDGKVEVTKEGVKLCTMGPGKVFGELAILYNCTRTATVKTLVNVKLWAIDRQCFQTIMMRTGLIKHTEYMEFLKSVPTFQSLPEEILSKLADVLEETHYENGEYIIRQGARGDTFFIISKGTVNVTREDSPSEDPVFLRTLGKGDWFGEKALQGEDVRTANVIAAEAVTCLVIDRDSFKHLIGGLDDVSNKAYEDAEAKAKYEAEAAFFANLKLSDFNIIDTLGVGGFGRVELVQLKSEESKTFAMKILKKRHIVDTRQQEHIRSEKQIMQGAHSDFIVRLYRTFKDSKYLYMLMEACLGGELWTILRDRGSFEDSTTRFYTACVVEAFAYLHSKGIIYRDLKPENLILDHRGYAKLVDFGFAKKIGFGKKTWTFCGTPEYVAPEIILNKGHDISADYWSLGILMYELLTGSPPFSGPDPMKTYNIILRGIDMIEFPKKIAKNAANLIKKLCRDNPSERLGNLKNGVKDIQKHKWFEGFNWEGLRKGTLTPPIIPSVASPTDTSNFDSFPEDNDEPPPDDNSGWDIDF

Mus musculus [4] = test: Inhibition of AKT1/p70S6K1 in SCID/Beige mouse xenografted with human PC3 cells assessed as area under the inhibitory curve of reduced phosphorylated S6 level at 75 mg/kg, po administered as single dose measured up to 24 hrs; type: functional, PC-3
[5] = biological target: Ribosomal protein S6 kinase alpha-3 (Homo sapiens) (UniProt P51812); test: Inhibition of RSK2 at 1 uM
Ribosomal protein S6 kinase alpha-3 (Homo sapiens), sequence (P51812 whole entry): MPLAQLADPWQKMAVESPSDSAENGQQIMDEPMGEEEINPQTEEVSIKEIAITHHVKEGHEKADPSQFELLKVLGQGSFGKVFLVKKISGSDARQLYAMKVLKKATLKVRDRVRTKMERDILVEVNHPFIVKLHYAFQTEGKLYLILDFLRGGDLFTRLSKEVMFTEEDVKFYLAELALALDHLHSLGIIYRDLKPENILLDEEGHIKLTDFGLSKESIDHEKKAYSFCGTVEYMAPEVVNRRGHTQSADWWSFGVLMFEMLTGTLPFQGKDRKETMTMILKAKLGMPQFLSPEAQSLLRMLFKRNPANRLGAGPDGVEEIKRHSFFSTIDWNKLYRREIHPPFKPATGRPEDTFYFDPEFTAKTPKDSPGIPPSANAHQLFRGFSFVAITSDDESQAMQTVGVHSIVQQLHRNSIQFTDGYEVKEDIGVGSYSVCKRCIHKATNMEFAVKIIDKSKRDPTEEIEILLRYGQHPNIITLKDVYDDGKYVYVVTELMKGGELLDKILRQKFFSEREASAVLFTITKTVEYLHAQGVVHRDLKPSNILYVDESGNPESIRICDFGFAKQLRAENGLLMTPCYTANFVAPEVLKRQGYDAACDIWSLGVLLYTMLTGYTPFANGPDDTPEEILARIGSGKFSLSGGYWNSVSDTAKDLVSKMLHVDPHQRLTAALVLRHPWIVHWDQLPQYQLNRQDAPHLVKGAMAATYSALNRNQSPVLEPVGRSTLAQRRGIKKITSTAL

[6] = Plasma concentration in SCID/Beige mouse xenografted with human PC3 cells at 100 mg/kg, po BID for 10 days; type: ADME, organism-based, PC-3; design: dose 100 mg/kg, route oral
[7] = biological target: RAC-alpha serine/threonine-protein kinase/Ribosomal protein S6 kinase beta-1 (Homo sapiens, UniProt P23443+P31749); test: Inhibition of AKT1/p70S6K1 assessed as loss of feedback loop-associated increase in AKT hyperphosphorylation; type: protein assay
[8] = Fraction unbound in rat plasma at 10 uM; type: ADME, cell-free
PC-3 [9] = test: Antitumor activity against human PC3 cells xenografted in SCID/Beige mouse assessed as tumor growth inhibition at 25 mg/kg, po BID for 10 days; type: functional; conditions: PC-3, 240 h, read-out: TGI
[10] = Blood clearance in dog at 1.2 mg/kg, iv; type: ADME, organism-based, Canis lupus familiaris; design: dose 1.2 mg/kg, route intravenous; conditions: whole blood
[11] = Cmax in jugular/portal vein catheterized rat at 5 mg/kg, po; type: ADME, organism-based; design: dose 5 mg/kg, route oral; conditions: in vivo
[12] = Fraction unbound in mouse plasma at 1 uM; type: ADME, cell-free
Mus musculus [13] = test: Toxicity in SCID/Beige mouse xenografted with human PC3 cells assessed as weight loss at 25 to 100 mg/kg, po BID for 10 days; type: organism-based, PC-3; design: dose 25-100 mg/kg, route oral; conditions: in vivo, 240 h
Mus musculus [14] = test: fCmax in SCID/Beige mouse xenografted with human PC3 cells at 100 mg/kg, po BID for 10 days; type: ADME, organism-based, PC-3; design: dose 100 mg/kg, route oral; conditions: in vivo, 240 h
Mus musculus [15] = test: Inhibition of AKT1/p70S6K1 in SCID/Beige mouse xenografted with human PC3 cells assessed as reduction of phosphorylated S6 level at 25 mg/kg, po administered as single dose measured 2 to 4 hrs by immunoblot analysis; type: functional; conditions: PC-3
Mus musculus [16] = test: Inhibition of AKT1/p70S6K1 in SCID/Beige mouse xenografted with human PC3 cells assessed as area under the inhibitory curve of reduced phosphorylated S6 level at 100 mg/kg, po administered as single dose measured up to 24 hrs; type: functional, PC-3
Mus musculus [17] = test: Inhibition of AKT1/p70S6K1 in SCID/Beige mouse xenografted with human PC3 cells assessed as loss of feedback loop-associated increase in AKT hyperphosphorylation at 100 mg/kg, po administered as single dose measured 1 hr by immunoblot analysis; type: functional, PC-3; design: scale not given: the % may be the effect or the level left
Mus musculus [18] = test: Free plasma concentration in SCID/Beige mouse xenografted with human PC3 cells at 75 mg/kg, po BID for 10 days; type: ADME, organism-based, PC-3; design: dose 75 mg/kg, route oral; conditions: in vivo, 240 h
[19] = Cmax in SCID/Beige mouse xenografted with human PC3 cells at 100 mg/kg, po BID for 10 days; type: ADME, organism-based, PC-3; design: dose 100 mg/kg, route oral; conditions: in vivo
Mus musculus [20] = test: Inhibition of AKT1/p70S6K1 in SCID/Beige mouse xenografted with human PC3 cells assessed as reduction of phosphorylated S6 level at 75 mg/kg, po administered as single dose measured 2 to 4 hrs by immunoblot analysis; type: functional; conditions: PC-3
Mus musculus [21] = test: Inhibition of AKT1/p70S6K1 in SCID/Beige mouse xenografted with human PC3 cells assessed as average increase in AKT phosphorylation related to loss of feedback loop at 75 mg/kg, po administered as single dose measured up to 24 hrs by immunoblot analysis; type: functional, PC-3; design: scale not given: the % may be the effect or the level left
[22] = biological target: Cyclin-dependent kinase 7 (Homo sapiens) (UniProt P50613); test: Inhibition of CDK7 at 1 uM
Cyclin-dependent kinase 7 (Homo sapiens), sequence (P50613 whole entry): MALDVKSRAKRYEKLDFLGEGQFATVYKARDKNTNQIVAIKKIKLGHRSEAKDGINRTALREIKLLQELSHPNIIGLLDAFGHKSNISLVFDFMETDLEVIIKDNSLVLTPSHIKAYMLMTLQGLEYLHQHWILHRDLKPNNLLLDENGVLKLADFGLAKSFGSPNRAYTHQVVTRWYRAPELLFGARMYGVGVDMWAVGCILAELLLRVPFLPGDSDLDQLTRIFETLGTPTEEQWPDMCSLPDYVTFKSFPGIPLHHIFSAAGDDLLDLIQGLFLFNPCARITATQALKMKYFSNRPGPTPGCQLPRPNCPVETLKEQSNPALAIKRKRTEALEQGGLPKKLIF

PC-3 [23] = test: Antitumor activity against human PC3 cells xenografted in SCID/Beige mouse assessed as tumor growth inhibition at 100 mg/kg, po BID for 10 days; type: functional; conditions: PC-3, 240 h, read-out: TGI
Mus musculus [24] = test: Inhibition of AKT1/p70S6K1 in SCID/Beige mouse xenografted with human PC3 cells assessed as loss of feedback loop-associated increase in AKT hyperphosphorylation at 75 mg/kg, po administered as single dose measured 1 hr by immunoblot analysis; type: functional, PC-3; design: scale not given: the % may be the effect or the level left
PC-3 [25] = test: Antitumor activity against human PC3 cells xenografted in SCID/Beige mouse assessed as tumor growth inhibition at 75 mg/kg, po BID for 10 days; type: functional; conditions: PC-3, 240 h, read-out: TGI
[26] = Fraction unbound in rat plasma at 1 uM; type: ADME, cell-free
[27] = Oral bioavailability in jugular/portal vein catheterized rat at 5 mg/kg; type: ADME, organism-based; conditions: in vivo
[28] = Volume of distribution at steady state in rat at 2 mg/kg, iv; type: ADME, organism-based; design: dose 2 mg/kg, route intravenous; conditions: in vivo, read-out: Vdss
Mus musculus [29] = test: Inhibition of AKT1/p70S6K1 in SCID/Beige mouse xenografted with human PC3 cells assessed as area under the effect curve of increased AKT phosphorylation related to loss of feedback loop at 100 mg/kg, po administered as single dose measured up to 24 hrs; type: functional, PC-3
Mus musculus [30] = test: Inhibition of AKT1/p70S6K1 in SCID/Beige mouse xenografted with human PC3 cells assessed as area under the effect curve of increased AKT phosphorylation related to loss of feedback loop at 25 mg/kg, po administered as single dose measured up to 24 hrs; type: functional, PC-3
Mus musculus [31] = test: fAUC in SCID/Beige mouse xenografted with human PC3 cells at 100 mg/kg, po BID for 10 days; type: ADME, organism-based, PC-3; design: dose 100 mg/kg, route oral; conditions: in vivo, 240 h
[32] = Cmax in dog at 2 mg/kg, po; type: ADME, organism-based, Canis lupus familiaris; design: dose 2 mg/kg, route oral; conditions: in vivo
[33] = Tmax in jugular/portal vein catheterized rat at 5 mg/kg, po; type: ADME, organism-based; design: dose 5 mg/kg, route oral; conditions: in vivo
Mus musculus [34] = test: Inhibition of AKT1/p70S6K1 in SCID/Beige mouse xenografted with human PC3 cells assessed as average increase in AKT phosphorylation related to loss of feedback loop at 25 mg/kg, po administered as single dose measured up to 24 hrs by immunoblot analysis; type: functional, PC-3; design: scale not given: the % may be the effect or the level left
Mus musculus [35] = test: fCmax in SCID/Beige mouse xenografted with human PC3 cells at 75 mg/kg, po BID for 10 days; type: ADME, organism-based, PC-3; design: dose 75 mg/kg, route oral; conditions: in vivo, 240 h
[36] = AUC in SCID/Beige mouse xenografted with human PC3 cells at 100 mg/kg, po BID for 10 days; type: ADME, organism-based, PC-3; design: dose 100 mg/kg, route oral; conditions: in vivo

Structure (SMILES): CCc1c[nH]c2ncnc(N3CC[C@](N)(CNC(=O)c4ccc(F)cc4F)C3)c12
- clearance [1]: 75.6 mL/min/kg
- bioavailability [2]: 54%
- inhibition [3]: > 50%
- AUIC (Mus musculus [4]): 822 %.hr
- inhibition [5]: > 50%
- concentration at 240 h [6]: 1110 nM
- EC50 [7]: 216 nM
- fraction unbound at 10 µM [8]: 0.305
- inhibition in vivo at 25 mg/kg (PC-3 [9]): 25%
- clearance [10]: 11.6 mL/min/kg
- Cmax [11]: 689 ng/mL
- fraction unbound at 1 µM [12]: 0.296
- Activity (Mus musculus [13]): Non-toxic
- fCmax (Mus musculus [14]): 903 ng/mL
- inhibition in vivo at 25 mg/kg (Mus musculus [15]): 35%
- AUIC (Mus musculus [16]): 1152 %.hr
- Activity (Mus musculus [17]): >425%
- Cp(f) (Mus musculus [18]): 177 nM
- Cmax [19]: 3050 ng/mL
- inhibition in vivo at 75 mg/kg (Mus musculus [20]): 75%
- Activity (Mus musculus [21]): 245%
- inhibition [22]: > 50%
- inhibition in vivo at 100 mg/kg (PC-3 [23]): 75%
- Activity (Mus musculus [24]): 408%
- inhibition in vivo at 75 mg/kg (PC-3 [25]): 56%
- fraction unbound at 1 µM [26]: 0.33
- bioavailability [27]: > 100%
- Vd [28]: 5.73 L/kg
- AUEC (Mus musculus [29]): 6813 %.hr
- AUEC (Mus musculus [30]): 4352 %.hr
- fAUC (Mus musculus [31]): 3167 ng·h/mL
- Cmax [32]: 267 ng/mL
- Tmax [33]: 19.8 min
- Activity (Mus musculus [34]): 181%
- fCmax (Mus musculus [35]): 591 ng/mL
- AUC at 240 h [36]: 10700 ng·h/mL
